Reference: patent US20060166956A1, “Use of anecortave acetate for the protection of visual acuity in patients with age related macular degeneration” (priority 2002, published 2006)

What was measured:
[1] = tested on: subfoveal CNV lesion secondary to AMD; experiment: Clinical trial: CNV lesion surface area change by standardized fluorescein angiograms (DARC); type: in vivo, patients; settings: for inhibition of lesion growth, comparison with placebo: Month 6
Text: (§1) This ongoing trial was initiated to compare the clinical efficacy of anecortave acetate versus placebo treatment for preservation (maintenance) of vision and inhibition of CNV lesion growth. Patients with a log MAR visual acuity of 0.3 (20/40 Snellen equivalent) to 1.2 (20/320 Snellen equivalent) and primary or recurrent subfoveal choroidal neovascularization (CNV) secondary to AMD with a lesion up to 30.48 mm^2 (12 disc areas) in size were enrolled. At Baseline and follow-up visits, best-corrected log MAR visual acuity was obtained on all patients using guidelines previously established for the Early Treatment Diabetic Retinopathy Study. Patient lesion eligibility for this study was determined from standardized fluorescein angiograms at the Digital Angiography Reading Center (DARC) by certified Readers (trained retina specialists) prior to enrollment and treatment. The DARC also evaluated changes from Baseline in the fluorescein angiographic characteristics of the lesions in masked fashion. Each data point represents the average of at least two independent evaluations by DARC Readers. Because all angiographic data for this study is being collected using the same fundus camera and digital camera systems and stored as uncompressed digital images, the actual lesion surface areas can be more closely approximated in mm^2 rather than requiring the disc area “best-fit” estimates previously used for film angiographic data.
The primary efficacy outcome for this ongoing study is the mean change from Baseline in best-corrected log MAR visual acuity. Secondary efficacy outcomes are: the percentage of patients with preservation or maintenance of vision (defined as loss of less than three log MAR lines [less than 15 log MAR letters] of visual acuity); the percentage of patients with clinically significant worsening of vision (defined as a loss of at least three log MAR lines [at least 15 log MAR letters] of visual acuity); the percentage of patients with severe vision loss (defined as a loss of at least six log MAR lines [at least 30 log MAR letters] of visual acuity); and changes in CNV lesion characteristics (defined as total lesion area, total CNV and total classic CNV).
All efficacy analyses were based on the intent-to-treat principle. All patients received the medication to which they were assigned, and were analyzed accordingly. Last-observation-carry-forward was used to impute missing values. Baseline comparisons were tested using analysis of variance (for continuous outcomes) and Pearson's chi square (for binary outcomes). Changes from baseline in visual acuity and lesion parameters were tested in a repeated measures analysis of variance model with appropriate contrasts for the 6-month comparisons. Comparisons of binary outcomes at Month 6 were evaluated using Pearson's chi-square tests. All analyses of ocular outcomes are based on changes in the study (i.e., treated) eye.
Total lesion areas, total CNV areas, and total classic CNV areas were measured and compared among treatment groups.

[2] = tested on: patients with exudative AMD; experiment: Clinical trial: clinical safety evaluation (Independent Safety Committee); type: in vivo
Text: (§2) Clinical efficacy data is being obtained from evaluations of best-corrected log MAR visual acuity and standardized fluorescein angiograms. Clinical safety data obtained from general physical examinations, laboratory evaluations of blood and urine, and complete ophthalmic examinations, including indocyanine green angiography, continue to be periodically evaluated by the Independent Safety Committee overseeing this study. Clinical data from evaluations for safety and efficacy performed at Day 1-2, Week 2, Week 6, Month 3, and Month 6 following patient randomization and treatment are reported here.
Following completion of the Month 6 visit by all patients, the accumulated safety data were evaluated by the Independent Safety Committee overseeing this study. […] The most common ocular changes reported were changes in lens opacity using the Lens Opacity Classification System (LOCS) II, and included reports of nuclear color, nuclear opalescence, cortical, and posterior subcapsular changes. Cataracts are a common intercurrent disorder in this patient population, and the changes seen were documented in all treatment groups and in contralateral (untreated) eyes. The cataractous changes reported were described as mild and typically unrelated to treatment. The second most common ocular change, a decrease in vision (defined as a decrease of ≧4 log MAR lines from the previous visit), is also a common problem in this patient population. These vision decreases occurred in all treatment groups and in the contralateral eye. Other ocular changes (occurring with a frequency greater than 5%) were ptosis, ocular pain, subconjunctival hemorrhage, ocular pruritis, ocular burning/stinging, pupil disorders, foreign body sensation, ocular hyperemia, and abnormal vision. These changes were reported in all four treatment groups, in both treated eyes and contralateral eyes, were characterized as primarily mild, were generally not attributed to treatment, and were transient in nature. The single report of an IOP increase (≧10 mmHg) from Baseline occurred in a patient treated with anecortave acetate 30 mg and was attributed to intercurrent illness. Of the ocular changes reported, those most frequently attributed to study treatment were ptosis, ocular pain, subconjunctival hemorrhage, ocular pruritis, and ocular burning/stinging. These treatment-related events were mostly mild, transient, and seen within all four treatment groups.

[3] = tested on: patients with subfoveal choroidal neovascularization (CNV) secondary to AMD; experiment: Clinical trial: best-corrected log MAR visual acuity after single posterior juxtascleral administration; type: in vivo
Text: as §1
The 128 patients in this double-masked, dose-response study were enrolled and treated between April 1999 and May 2001 by 18 participating sites in the US and EU. Prior to treatment, patients were enrolled and equally randomized to anecortave acetate sterile suspension for injection 30 mg (N=33), 15 mg (N=33), or 3 mg (N=32) or to placebo (vehicle, N=30). Masking of the clinical sites as to treatment group is being maintained in two ways. Study medication is masked by placing the treatment kits including study medication and supplies for the posterior juxtascleral administration in sealed opaque boxes identified by patient number only. The boxes were numbered sequentially at each clinical site and patients were assigned the next available sequential number upon enrollment. The randomization was built into the sequential numbering of the treatment kits and blocked within each site to maintain equal distribution across treatment assignments. Masking as to treatment group is also being maintained at each site by having an unmasked injecting investigator perform the treatments and a masked examining investigator perform the subsequent evaluations. Upon enrollment of each patient, anecortave acetate or placebo was administered behind the eye as a 0.5 mL posterior juxtascleral injection onto the outer surface of the sclera near the macula using a specially designed cannula. The cannula is described in commonly owned U.S. Pat. No. 6,413,245B 1.
as §2, with “here. […]” for “here.”

CC(=O)OCC(=O)[C@@]1(O)CC[C@H]2[C@@H]3CCC4=CC(=O)CC[C@]4(C)C3=CC[C@@]21C [anecortave acetate, 4,9(11)-pregnadien-17α,21-diol-3,20 dione-21 acetate]
inhibition of lesion growth, comparison with placebo ([1]; 3 mg): trend favoring
inhibition of total CNV surface area (percent change from Baseline), comparison with placebo ([1]; 15 mg, Month 6, p=0.0001): statistically superior to placebo treatment
inhibition of total lesion surface area (percent change from Baseline), comparison with placebo ([1]; 15 mg, Month 6, p=0.0005): statistically superior to placebo treatment
inhibition of total classic CNV surface area (percent change from Baseline), comparison with placebo ([1]; 15 mg, Month 6, p=0.0008): statistically superior to placebo treatment
inhibition of lesion growth, comparison with placebo ([1]; 30 mg): trend favoring
reports of IOP increase (≧10 mmHg) from Baseline ([2]; 30 mg): single report
changes in blood chemistry, hematology, or urinalysis ([2]; all doses): No treatment-related changes
safety concerns identified by the Independent Safety Committee ([2]; all doses, after Month 6 visit): no clinically relevant medication-related or administration-related safety concerns were identified
ocular corticosteroid side effects (elevated intraocular pressure, accelerated cataract progression) ([2]; clinical study, at least 6 months exposure): no clinical evidence
mean change at Month 6 from Baseline in log MAR visual acuity, comparison with placebo ([3]; 3 mg): Trends also favor treatment
percentage of patients with preservation of vision (decrease of less than three log MAR lines) ([3]; 15 mg, Month 6, all patients): 88%
percentage of patients with preservation of vision (decrease of less than three log MAR lines) ([3]; 15 mg, Month 6, subgroup with predominantly classic CNV lesion, p=0.0209 vs placebo): 92%
mean change at Month 6 from Baseline in log MAR visual acuity, comparison with placebo ([3]; 15 mg, p=0.0032): statistically superior to placebo treatment
mean change at Month 6 from Baseline in log MAR visual acuity, comparison with placebo ([3]; 30 mg): Trends also favor treatment
